≈ marks a conversion by molar mass, not a printed value.
Assays:
Escherichia coli = test: Antibiofilm activity against Escherichia coli UTI89 at 5 ug/ml incubated for 72 hrs by crystal violet staining based assay relative to control; format: functional; settings: dose 5 µg/ml
[1] = Inhibition of AHL-mediated quorum sensing system in Pseudomonas aeruginosa PAO1 assessed as decrease in C4-HSL levels at 64 ug/ml by HPLC/MS analysis relative to control; settings: dose 64.0 µg/ml
[2] = molecular target: 3-(3-hydroxydecanoyloxy)decanoate synthase (Pseudomonas aeruginosa (strain ATCC 15692 / PAO1 / 1C / PRS 101 / LMG12228)) (UniProt Q51559); test: Inhibition of Pseudomonas aeruginosa PAO1 Rhamnolipid at 64 to 256 ug/ml by spectrophotometrical analysis relative to control; settings: dose 64-256 µg/ml
Pseudomonas aeruginosa [3] = test: Inhibition of Pseudomonas aeruginosa PAO1 Pyocyanin at 64 to 256 ug/ml by spectrophotometrical analysis relative to control; settings: dose 64-256 µg/ml
Burkholderia cepacia = test: In vivo antibacterial activity against Burkholderia cepacia LMG 16656 infected in BALB/C mouse assessed as reduction in bacterial load in lung at 2 mg/kg, INH administered for 24 to 48 hr post bacterial infection and measured after 3 days post compound treatment in presence of tobramycin relative to control; format: functional; set-up: scale not given: the % may be the effect or the level left; settings: time 3 day
Pseudomonas aeruginosa [4] = test: Antibiofilm activity against Pseudomonas aeruginosa PAO1 assessed as reduction in bacterial growth by crystal violet staining based assay; format: functional
[5] = molecular target: Protease LasA (Pseudomonas aeruginosa) (UniProt P14789); test: Inhibition of Pseudomonas aeruginosa PAO1 LasA protease at 64 to 256 ug/ml using azocasein as substrate incubated for 24 hrs by spectrophotometrical analysis relative to control; settings: dose 64-256 µg/ml
Protease LasA (Pseudomonas aeruginosa), sequence (P14789 whole entry): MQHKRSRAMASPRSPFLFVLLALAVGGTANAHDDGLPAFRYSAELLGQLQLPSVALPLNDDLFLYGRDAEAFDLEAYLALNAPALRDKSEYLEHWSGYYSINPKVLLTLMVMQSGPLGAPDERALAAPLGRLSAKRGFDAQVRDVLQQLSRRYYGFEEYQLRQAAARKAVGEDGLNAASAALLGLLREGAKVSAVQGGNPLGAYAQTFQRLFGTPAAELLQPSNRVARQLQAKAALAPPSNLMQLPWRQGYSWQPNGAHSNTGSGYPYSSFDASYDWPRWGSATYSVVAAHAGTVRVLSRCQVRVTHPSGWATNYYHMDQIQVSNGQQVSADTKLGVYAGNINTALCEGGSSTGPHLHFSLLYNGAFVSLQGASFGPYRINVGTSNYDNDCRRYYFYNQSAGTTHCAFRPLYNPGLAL

[6] = molecular target: Elastase (Pseudomonas aeruginosa (strain ATCC 15692 / PAO1 / 1C / PRS 101 / LMG12228)) (UniProt P14756); test: Inhibition of Pseudomonas aeruginosa PAO1 LasB elastase at 64 to 256 ug/ml incubated for 16 hrs by elastin Congo red (ECR) assay relative to control; settings: dose 64-256 µg/ml
Elastase (Pseudomonas aeruginosa (strain ATCC 15692 / PAO1 / 1C / PRS 101 / LMG12228)), sequence (P14756 198-498 limits assumed): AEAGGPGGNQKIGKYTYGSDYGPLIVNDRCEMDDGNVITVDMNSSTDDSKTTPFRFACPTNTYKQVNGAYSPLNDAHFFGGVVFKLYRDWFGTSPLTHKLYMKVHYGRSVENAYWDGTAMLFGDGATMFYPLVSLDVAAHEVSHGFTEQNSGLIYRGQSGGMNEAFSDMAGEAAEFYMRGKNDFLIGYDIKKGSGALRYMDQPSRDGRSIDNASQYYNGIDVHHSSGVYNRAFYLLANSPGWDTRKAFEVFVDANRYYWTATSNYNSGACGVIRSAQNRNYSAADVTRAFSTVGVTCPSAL

Lectin A = Lectin A (Photorhabdus laumondii subsp. laumondii, UniProt Q7N561); test: Inhibition of Photorhabdus luminescens LecA expressed in Escherichia coli BL21(DE3) cells by fluorescence based analysis
Lectin A, sequence (Q7N561 whole entry): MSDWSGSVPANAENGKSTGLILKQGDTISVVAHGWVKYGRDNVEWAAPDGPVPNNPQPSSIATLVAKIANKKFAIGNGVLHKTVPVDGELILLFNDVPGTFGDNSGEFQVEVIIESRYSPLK

[7] = Downregulation of c-di-GMP level in Pseudomonas aeruginosa PA14 planktonic cells harboring wspF gene mutation at 10 uM incubated for 24 hrs by HPLC method; format: functional
[8] = Antibiofilm activity against Pseudomonas aeruginosa PA14 cocultured with Staphylococcus aureus ATCC 6538 assessed as inhibition of biofilm formation incubated for 24 hrs by crystal violet staining based microtiter plate method relative to control; format: functional; set-up: scale not given: the % may be the effect or the level left
Pseudomonas aeruginosa [9] = test: Downregulation of c-di-GMP level in Pseudomonas aeruginosa PA14 harboring wspF gene mutation biofilm at 10 uM incubated for 24 hrs by HPLC method; format: functional
Sortase A [10] = molecular target: T1, Sortase A (Staphylococcus aureus, UniProt Q9S446); test: Inhibition of Staphylococcus aureus ATCC 6538p Sortase A protease expressed in Escherichia coli BL21 expression system using Dabcyl-QALPETGEE-Edans as substrate incubated for 1 hr by FRET assay
T1 sequence (Q9S446 whole entry): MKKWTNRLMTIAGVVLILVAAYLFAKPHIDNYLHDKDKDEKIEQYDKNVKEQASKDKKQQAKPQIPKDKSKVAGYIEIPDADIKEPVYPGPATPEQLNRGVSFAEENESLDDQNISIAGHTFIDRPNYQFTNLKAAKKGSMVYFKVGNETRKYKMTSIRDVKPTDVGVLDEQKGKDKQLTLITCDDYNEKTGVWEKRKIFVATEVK

Streptococcus mutans [11] = test: Prevention of Streptococcus mutans CLSM 001 adherence to sucrose-dependent glass surface at 1 to 2 mg/ml relative to control; format: functional; settings: dose 1-2 mg/ml
Pseudomonas aeruginosa [12] = test: Antibacterial activity against Pseudomonas aeruginosa PAO1 NCTC 10332 assessed as inhibition of biofilm formation incubated for 24 hrs by crystal violet staining based analysis; format: functional, organism-based; settings: PAO1 NCTC 10332, 24 h
Pseudomonas aeruginosa [13] = test: Antibacterial activity against Pseudomonas aeruginosa PAO1 NCTC 10332 assessed as inhibition of biofilm formation at 100 ug/ml incubated for 24 hrs by crystal violet staining based analysis relative to control; format: functional; set-up: scale not given: the % may be the effect or the level left; settings: dose 100 µg/ml
Pseudomonas aeruginosa [14] = test: Antibacterial activity against Pseudomonas aeruginosa PAO1 NCTC 10332 assessed as inhibition of biofilm dispersion incubated for 24 hrs by crystal violet staining based analysis; format: functional, organism-based; settings: PAO1 NCTC 10332, 24 h
Serratia marcescens = test: Antibacterial activity against Serratia marcescens ATCC 27117 assessed as inhibition of biofilm formation at 50 ug/ml incubated for 24 hrs by crystal violet staining based analysis relative to control; format: functional; set-up: scale not given: the % may be the effect or the level left; settings: dose 50 µg/ml
Staphylococcus aureus = test: Prevention of Staphylococcus aureus ATCC 25904 adherence to fibrinogen at 64 ug/ml by crystal violet staining based analysis relative to control; format: functional; settings: dose 64 µg/ml
Sortase A [15] = molecular target: T1, Sortase A; test: Inhibition of Staphylococcus aureus ATCC 25904 Sortase A protease expressed in Escherichia coli BL21 expression system using Dabcyl-QALPETGEE-Edans as substrate incubated for 30 mins by FRET assay
Streptococcus mutans [16] = test: Prevention of Streptococcus mutans adherence at 0.1 mg/ml relative to control; format: functional
[17] = molecular target: T2, PA-I galactophilic lectin (Pseudomonas aeruginosa (strain ATCC 15692 / PAO1 / 1C / PRS 101 / LMG12228), UniProt Q05097); test: Inhibition of FITC-labelled Pseudomonas aeruginosa LecA
T2 sequence (Q05097 whole entry): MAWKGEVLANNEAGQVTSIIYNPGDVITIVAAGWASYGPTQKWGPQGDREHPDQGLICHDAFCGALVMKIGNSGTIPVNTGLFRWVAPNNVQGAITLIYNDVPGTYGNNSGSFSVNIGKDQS

Streptococcus suis = test: Prevention of Streptococcus suis ATCC 700794 adherence to sucrose-dependent membrane surface at 78.1 ug/ml relative to control; format: functional; settings: dose 78.1 µg/ml

`C[C@@H]1O[C@@H](O[C@@H]2[C@@H](O)[C@H](OCCc3ccc(O)c(O)c3)O[C@H](CO)[C@H]2OC(=O)/C=C/c2ccc(O)c(O)c2)[C@H](O)[C@H](O)[C@H]1O` [ACETOSIDE] gave an Activity (Escherichia coli) of 60%.

For `O=C(O)[C@H]1O[C@@H](Oc2cc3oc(-c4ccccc4)cc(=O)c3c(O)c2O)[C@H](O)[C@@H](O)[C@@H]1O` [BAICALIN], the inhibition [1] was 77.2%, the inhibition [2] was 45.1% and the inhibition (Pseudomonas aeruginosa [3]) was 61.7%. It also gave an Activity (Burkholderia cepacia) of 99%, an MIC (Pseudomonas aeruginosa [4]) greater than 1020 µg/mL and an inhibition [5] of 48.6%. The inhibition [6] was 77.1%.

In the case of `OC[C@H]1O[C@H](OC[C@H]2O[C@H](O[C@]3(CO)O[C@H](CO)[C@@H](O)[C@@H]3O)[C@H](O)[C@@H](O)[C@@H]2O)[C@H](O)[C@@H](O)[C@H]1O` [RAFFINOSE], the IC50 (Lectin A) is reported as 110 µM, the Activity [7] is reported as 47% and the Activity [8] is reported as 23%. The Activity (Pseudomonas aeruginosa [9]) was 59%.

Work on `CC[C@H](CCC(C)[C@H]1CC[C@H]2[C@@H]3CCC4C[C@@H](O[C@@H]5O[C@H](CO)[C@@H](O)[C@H](O)[C@H]5O)CC[C@]4(C)[C@H]3CC[C@]12C)C(C)C` (stereo partly drawn) yielded an IC50 (Sortase A [10]) of 31.6 µM.

Compound `O=c1c(O[C@@H]2OC[C@H](O)[C@H](O)[C@H]2O)c(-c2ccc(O)c(O)c2)oc2cc(O)cc(O)c12` [GUAJAVERIN] has an Activity (Streptococcus mutans [11]) of 83.7%.

In the case of `CCCCCCC[C@H](CC(=O)N1CCOCC1)OC(=O)C[C@@H](CCCCCCC)O[C@@H]1O[C@@H](C)[C@H](O)[C@@H](O)[C@H]1O[C@@H]1O[C@@H](C)[C@H](O)[C@@H](O)[C@H]1O`, the IC50 (Pseudomonas aeruginosa [12]) is reported as 12.5 µg/mL (≈ 17.4 µM), the Activity (Pseudomonas aeruginosa [13]) is reported as 90% and the IC50 (Pseudomonas aeruginosa [14]) is reported as 10 µg/mL (≈ 13.9 µM). The Activity (Serratia marcescens) was greater than 80%.

`C[C@H]1O[C@@H](Oc2c(-c3ccc(O)c(O)c3)oc3cc(O)cc(O)c3c2=O)[C@H](O)[C@H](O)[C@H]1O` gave an Activity (Staphylococcus aureus) of 51.9% and an IC50 (Sortase A [15]) of 71.4 µM.

Work on `COc1cc(-c2[o+]c3cc(O[C@@H]4O[C@H](CO)[C@@H](O)[C@H](O)[C@H]4O)cc(O)c3cc2O[C@@H]2O[C@H](CO)[C@@H](O)[C@H](O)[C@H]2O)cc(OC)c1O` yielded an Activity (Streptococcus mutans [16]) of 60%.

With `OC[C@H]1O[C@@H](OCCCc2cn(CCn3cc([C@@H]4O[C@H](CO)[C@@H](n5cc([C@@H]6O[C@H](CO)[C@@H](n7cc(CCCO[C@@H]8O[C@H](CO)[C@H](O)[C@H](O)[C@H]8O)nn7)[C@H](O)[C@H]6O)nn5)[C@H](O)[C@H]4O)nn3)nn2)[C@H](O)[C@@H](O)[C@H]1O` the IC50 [17] was 0.22 µM.

Compound `C[C@@H]1O[C@@H](OC[C@H]2O[C@@H](Oc3c(-c4ccc(O)c(O)c4)oc4cc(O)cc(O)c4c3=O)[C@H](O)[C@@H](O)[C@@H]2O)[C@H](O)[C@H](O)[C@H]1O` [RUTIN] has an Activity (Streptococcus suis) of 20%.

Source: ChEMBL document CHEMBL5137057, “Small Carbohydrate Derivatives as Potent Antibiofilm Agents” (J Med Chem, 2022)
